Patent US11321826B2, “High throughput method for accurate prediction of compound-induced liver injury” (AGENCY FOR SCIENCE, TECHNOLOGY AND RESEARCH, priority 2016, dated 2022)
Like-named read-outs stand apart in the source and are kept apart here. Where a SMILES comes first, the peptide text is derived from it.

Key:
[1] = system: hepatocytes in vivo; settings: cited from earlier work
[2] = system: other organs than the liver; settings: in vivo; cited from earlier work
[3] = system: HepaRG cells; test: High-content imaging of HepaRG cells after fluorescent staining of RELA and nuclear DNA; settings: 16 h treatment; puromycin 100 μg/mL, acarbose 1000 μg/mL, tetracycline 1000 μg/mL, ethylene glycol 100 μg/mL, lithium chloride 1000 μg/mL; FIG. 3
Description: The HepG2 cells were cultured in T75 Corning Costar flasks with Dulbecco's modified eagle medium (DMEM) supplemented with 10% fetal bovine serum (FBS) and 1% penicillin-streptomycin. The HepG2 cells were seeded into 384-well black plates with transparent bottom (#781091; Greiner, Kremsmuenster, Austria) at a density of 10.000 cells/cm^2. The HepG2 cells were cultured for three days to attain confluency before overnight compound treatment of sixteen hours. The HepaRG cells were directly seeded at a density of 250.000 cells/cm^2 into 384-well black plates with transparent bottom (#781091; Greiner) coated with 100 μg/mL collagen I. For the first twenty-four hours of cultivation a Williams E medium, supplemented with HepaRG Thaw, Plate & General Purpose medium was used. […]
Screening was performed by using a dose-range of the following seven concentrations for each compound: 2 μM, 15 μM, 63 μM, 125 μM, 250 μM, 500 μM and 1 mM. […] Z′ values of each plate were calculated and values were all above 0.5, ranging from 0.62 to 0.89.
Cells were fixed for six hours with 3.7% formaldehyde in phosphate-buffered saline (PBS) after sixteen hours of compound exposure. […] F-actin was detected on every plate with rhodamine phalloidin (#R415; 1:100; Invitrogen, Singapore). […]

[4] = classification based on literature on compound-induced clinical effects in humans

Row | Structure (SMILES) | toxicity for hepatocytes in vivo [1, 4] | also measured
1 | [Cl][Cd][Cl] [Cadmium Chloride] | toxic | 
2 | [Cl-].[Li+] [lithium chloride] |  | toxicity in humans for other organs than the liver [2]: nephrotoxic
3 | OCCO [Ethylene glycol, ethylene glycol] |  | phenotypic changes / altered distribution of RELA (NF-κB p65) in HepaRG cells versus vehicle control [3]: did not induce obvious phenotypic changes; toxicity in humans for other organs than the liver [2]: nephrotoxic and neurotoxic
4 | C[C@H]1O[C@H](O[C@H]2[C@H](O)[C@@H](O)[C@@H](O[C@H]3[C@H](O)[C@@H](O)C(O)O[C@@H]3CO)O[C@@H]2CO)[C@H](O)[C@@H](O)[C@@H]1N[C@H]1C=C(CO)[C@@H](O)[C@H](O)[C@H]1O (some centres unmarked) [acarbose] | toxic for hepatocytes in vivo | 
5 | COC(=O)[C@H](Cc1ccccc1)NC(=O)[C@@H](N)CC(=O)O [Aspartame] (H-Asp-Phe-OMe) | not toxic | 
6 | Cn1c(=O)c2c(ncn2C)n(C)c1=O [Caffeine] | not toxic | 
7 | COc1ccc(C[C@H](N)C(=O)N[C@H]2[C@@H](O)[C@H](n3cnc4c(N(C)C)ncnc43)O[C@@H]2CO)cc1 [Puromycin, puromycin] | toxic | 
8 | CN1CCCC1c1cccnc1 (centres unmarked) [Nicotine] |  | toxicity for hepatocytes in vivo ([1]; human, in vivo): not toxic
9 | CN(C)[C@@H]1C(O)=C(C(N)=O)C(=O)[C@@]2(O)C(O)=C3C(=O)c4c(O)cccc4[C@@](C)(O)[C@H]3C[C@@H]12 [tetracycline] | toxic for hepatocytes in vivo | 
10 | Cn1cnc([N+](=O)[O-])c1Sc1ncnc2nc[nH]c12 [Azathioprine] | toxic | 
